In ChEMBL document CHEMBL4800727 (2021):

Key:
[1] = target: T1, Muscarinic acetylcholine receptor M4 (Homo sapiens) (UniProt P08173); assay: hM4 Cerep panel; conditions: Compound concentration 10.0 uM
T1 sequence (whole entry): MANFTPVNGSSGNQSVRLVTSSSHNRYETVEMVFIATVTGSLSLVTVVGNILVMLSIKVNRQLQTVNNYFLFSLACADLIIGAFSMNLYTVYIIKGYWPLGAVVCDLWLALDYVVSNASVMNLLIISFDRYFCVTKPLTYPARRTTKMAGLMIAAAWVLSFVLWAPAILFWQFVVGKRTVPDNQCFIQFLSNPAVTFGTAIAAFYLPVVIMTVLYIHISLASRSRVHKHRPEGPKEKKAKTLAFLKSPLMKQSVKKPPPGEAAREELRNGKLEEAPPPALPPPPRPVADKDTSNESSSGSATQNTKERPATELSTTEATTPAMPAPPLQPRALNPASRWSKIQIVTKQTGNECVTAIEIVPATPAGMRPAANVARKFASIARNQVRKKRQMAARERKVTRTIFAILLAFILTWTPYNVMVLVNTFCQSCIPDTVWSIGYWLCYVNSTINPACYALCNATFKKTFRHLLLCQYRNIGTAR

[2] = target: cGMP-dependent protein kinase 1 (Homo sapiens) (UniProt Q13976); assay: protein kinase, cGMP-dependent, type I Millipore kinase panel; conditions: Compound concentration 10.0 uM
Sequence of cGMP-dependent protein kinase 1 (Homo sapiens) (Q13976 whole entry): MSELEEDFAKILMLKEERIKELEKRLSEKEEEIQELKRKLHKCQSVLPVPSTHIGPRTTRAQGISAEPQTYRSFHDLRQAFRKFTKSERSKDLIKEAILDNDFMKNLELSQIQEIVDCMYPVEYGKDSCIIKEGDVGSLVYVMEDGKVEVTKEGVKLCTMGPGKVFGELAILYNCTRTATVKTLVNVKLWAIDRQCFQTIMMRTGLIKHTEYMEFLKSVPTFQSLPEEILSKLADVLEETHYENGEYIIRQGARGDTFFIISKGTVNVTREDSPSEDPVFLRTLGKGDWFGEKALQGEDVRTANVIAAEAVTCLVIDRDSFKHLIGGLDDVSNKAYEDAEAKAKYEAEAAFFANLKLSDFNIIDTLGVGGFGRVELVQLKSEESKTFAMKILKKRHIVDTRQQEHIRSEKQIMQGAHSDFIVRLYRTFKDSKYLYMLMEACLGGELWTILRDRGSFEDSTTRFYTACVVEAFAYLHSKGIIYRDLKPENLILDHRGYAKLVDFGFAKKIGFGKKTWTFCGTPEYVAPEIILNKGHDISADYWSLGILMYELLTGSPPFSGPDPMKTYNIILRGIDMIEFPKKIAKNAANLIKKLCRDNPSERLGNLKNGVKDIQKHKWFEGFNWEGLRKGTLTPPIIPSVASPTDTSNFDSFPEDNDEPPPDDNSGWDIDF

[3] = target: Eukaryotic elongation factor 2 kinase (Homo sapiens) (UniProt O00418); assay: eukaryotic elongation factor-2 kinase Millipore kinase panel; conditions: Compound concentration 10.0 uM
[4] = target: Neuropeptide Y receptor type 2 (Homo sapiens) (UniProt P49146); assay: hNPY2 Cerep panel; conditions: Compound concentration 10.0 uM
[5] = target: Homeodomain-interacting protein kinase 2 (Homo sapiens) (UniProt Q9H2X6); assay: homeodomain interacting protein kinase 2 Millipore kinase panel; conditions: Compound concentration 10.0 uM
Sequence of Homeodomain-interacting protein kinase 2 (Homo sapiens) (Q9H2X6 whole entry, looked up): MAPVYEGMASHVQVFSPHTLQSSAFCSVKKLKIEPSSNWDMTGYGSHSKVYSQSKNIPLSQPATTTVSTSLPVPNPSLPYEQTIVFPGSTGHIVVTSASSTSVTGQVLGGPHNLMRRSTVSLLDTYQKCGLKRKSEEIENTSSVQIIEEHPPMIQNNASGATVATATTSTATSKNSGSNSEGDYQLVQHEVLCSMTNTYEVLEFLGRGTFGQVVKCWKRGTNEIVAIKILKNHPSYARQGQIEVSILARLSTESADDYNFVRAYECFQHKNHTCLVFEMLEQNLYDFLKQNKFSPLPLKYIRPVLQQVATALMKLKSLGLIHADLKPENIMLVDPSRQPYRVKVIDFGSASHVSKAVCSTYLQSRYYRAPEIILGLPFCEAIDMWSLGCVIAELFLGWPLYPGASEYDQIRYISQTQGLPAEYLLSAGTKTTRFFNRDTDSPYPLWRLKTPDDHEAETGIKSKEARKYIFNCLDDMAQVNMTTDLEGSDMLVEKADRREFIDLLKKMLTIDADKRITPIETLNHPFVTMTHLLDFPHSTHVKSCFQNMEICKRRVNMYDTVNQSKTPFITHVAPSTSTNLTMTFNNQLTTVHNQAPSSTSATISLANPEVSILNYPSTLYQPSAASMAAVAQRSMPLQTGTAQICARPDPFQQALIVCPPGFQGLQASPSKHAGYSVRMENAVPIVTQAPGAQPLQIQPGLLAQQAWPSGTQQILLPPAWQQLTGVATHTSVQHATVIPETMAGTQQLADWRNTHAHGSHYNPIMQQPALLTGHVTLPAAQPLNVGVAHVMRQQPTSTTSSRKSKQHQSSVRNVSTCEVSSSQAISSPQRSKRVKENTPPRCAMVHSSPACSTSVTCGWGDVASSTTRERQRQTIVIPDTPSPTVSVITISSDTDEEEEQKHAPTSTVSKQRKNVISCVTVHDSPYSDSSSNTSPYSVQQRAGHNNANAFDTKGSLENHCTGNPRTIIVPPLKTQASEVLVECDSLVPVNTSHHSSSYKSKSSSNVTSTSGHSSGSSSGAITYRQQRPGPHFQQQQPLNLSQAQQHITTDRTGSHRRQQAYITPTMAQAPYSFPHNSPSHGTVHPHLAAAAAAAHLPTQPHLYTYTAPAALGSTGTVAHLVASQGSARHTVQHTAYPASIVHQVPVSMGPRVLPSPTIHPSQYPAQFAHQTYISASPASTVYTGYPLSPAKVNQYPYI

[6] = target: Homeodomain-interacting protein kinase 3 (Homo sapiens) (UniProt Q9H422); assay: homeodomain interacting protein kinase 3 Millipore kinase panel; conditions: Compound concentration 10.0 uM
[7] = target: 5-hydroxytryptamine receptor 5A (Homo sapiens) (UniProt P47898); assay: h5HT5A Cerep panel; conditions: Compound concentration 10.0 uM
[8] = target: Type-1 angiotensin II receptor (Homo sapiens) (UniProt P30556); assay: hAT1 Cerep panel; conditions: Compound concentration 10.0 uM
Sequence of Type-1 angiotensin II receptor (Homo sapiens) (P30556 whole entry): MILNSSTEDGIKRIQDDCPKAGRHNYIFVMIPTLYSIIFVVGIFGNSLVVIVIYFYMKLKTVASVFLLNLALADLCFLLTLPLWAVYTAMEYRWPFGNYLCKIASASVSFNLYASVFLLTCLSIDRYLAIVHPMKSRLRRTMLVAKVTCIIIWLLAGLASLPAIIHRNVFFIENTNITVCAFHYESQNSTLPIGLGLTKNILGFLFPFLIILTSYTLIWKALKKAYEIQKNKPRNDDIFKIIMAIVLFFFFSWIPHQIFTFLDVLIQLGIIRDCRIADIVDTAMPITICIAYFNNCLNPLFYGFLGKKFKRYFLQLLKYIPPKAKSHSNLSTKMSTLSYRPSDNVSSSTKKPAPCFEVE

[9] = target: Tyrosine-protein kinase receptor TYRO3 (Homo sapiens) (UniProt Q06418); assay: TYRO3 protein tyrosine kinase Millipore kinase panel; conditions: Compound concentration 10.0 uM
[10] = target: Vasoactive intestinal polypeptide receptor 1 (Homo sapiens) (UniProt P32241); assay: hVPAC1 Cerep panel; conditions: Compound concentration 10.0 uM
[11] = target: Protein kinase C theta type (Homo sapiens) (UniProt Q04759); assay: protein kinase C, theta Millipore kinase panel; conditions: Compound concentration 10.0 uM
[12] = target: Mitogen-activated protein kinase 1 (Homo sapiens) (UniProt P28482); assay: mitogen-activated protein kinase 1 (MAPK2) Millipore kinase panel; conditions: Compound concentration 10.0 uM
[13] = target: Mitogen-activated protein kinase 13 (Homo sapiens) (UniProt O15264); assay: mitogen-activated protein kinase 13 Millipore kinase panel; conditions: Compound concentration 10.0 uM
Sequence of Mitogen-activated protein kinase 13 (Homo sapiens) (O15264 whole entry): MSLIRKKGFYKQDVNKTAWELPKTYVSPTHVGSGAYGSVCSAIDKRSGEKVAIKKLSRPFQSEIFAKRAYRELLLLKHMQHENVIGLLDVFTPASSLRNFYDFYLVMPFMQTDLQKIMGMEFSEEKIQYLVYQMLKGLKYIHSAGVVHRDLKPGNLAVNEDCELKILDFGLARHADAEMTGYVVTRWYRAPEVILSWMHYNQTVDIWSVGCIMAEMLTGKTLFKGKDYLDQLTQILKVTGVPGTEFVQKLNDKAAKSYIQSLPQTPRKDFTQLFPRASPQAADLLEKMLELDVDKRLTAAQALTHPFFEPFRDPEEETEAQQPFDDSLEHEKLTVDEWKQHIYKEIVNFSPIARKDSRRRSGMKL

[14] = target: NUAK family SNF1-like kinase 1 (Homo sapiens) (UniProt O60285); assay: NUAK family, SNF1-like kinase, 1 Millipore kinase panel; conditions: Compound concentration 10.0 uM
[15] = target: Cholecystokinin receptor type A (Homo sapiens) (UniProt P32238); assay: hCCKA Cerep panel; conditions: Compound concentration 10.0 uM
Sequence of Cholecystokinin receptor type A (Homo sapiens) (P32238 whole entry): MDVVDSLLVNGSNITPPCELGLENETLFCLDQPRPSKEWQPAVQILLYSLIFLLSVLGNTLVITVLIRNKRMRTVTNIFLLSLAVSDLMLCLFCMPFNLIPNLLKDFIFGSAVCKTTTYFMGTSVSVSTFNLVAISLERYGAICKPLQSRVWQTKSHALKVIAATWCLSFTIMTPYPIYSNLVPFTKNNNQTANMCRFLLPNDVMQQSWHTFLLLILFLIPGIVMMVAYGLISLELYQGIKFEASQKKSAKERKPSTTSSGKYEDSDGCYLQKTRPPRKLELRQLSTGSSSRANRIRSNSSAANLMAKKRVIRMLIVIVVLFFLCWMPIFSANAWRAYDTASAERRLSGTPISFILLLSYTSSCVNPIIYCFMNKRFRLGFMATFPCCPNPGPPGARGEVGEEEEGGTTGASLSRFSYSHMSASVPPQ

[16] = target: 3',5'-cyclic-AMP phosphodiesterase 4D (Homo sapiens, UniProt Q08499); assay: hPDE4D3 PDE scan
Sequence of 3',5'-cyclic-AMP phosphodiesterase 4D (Q08499 whole entry): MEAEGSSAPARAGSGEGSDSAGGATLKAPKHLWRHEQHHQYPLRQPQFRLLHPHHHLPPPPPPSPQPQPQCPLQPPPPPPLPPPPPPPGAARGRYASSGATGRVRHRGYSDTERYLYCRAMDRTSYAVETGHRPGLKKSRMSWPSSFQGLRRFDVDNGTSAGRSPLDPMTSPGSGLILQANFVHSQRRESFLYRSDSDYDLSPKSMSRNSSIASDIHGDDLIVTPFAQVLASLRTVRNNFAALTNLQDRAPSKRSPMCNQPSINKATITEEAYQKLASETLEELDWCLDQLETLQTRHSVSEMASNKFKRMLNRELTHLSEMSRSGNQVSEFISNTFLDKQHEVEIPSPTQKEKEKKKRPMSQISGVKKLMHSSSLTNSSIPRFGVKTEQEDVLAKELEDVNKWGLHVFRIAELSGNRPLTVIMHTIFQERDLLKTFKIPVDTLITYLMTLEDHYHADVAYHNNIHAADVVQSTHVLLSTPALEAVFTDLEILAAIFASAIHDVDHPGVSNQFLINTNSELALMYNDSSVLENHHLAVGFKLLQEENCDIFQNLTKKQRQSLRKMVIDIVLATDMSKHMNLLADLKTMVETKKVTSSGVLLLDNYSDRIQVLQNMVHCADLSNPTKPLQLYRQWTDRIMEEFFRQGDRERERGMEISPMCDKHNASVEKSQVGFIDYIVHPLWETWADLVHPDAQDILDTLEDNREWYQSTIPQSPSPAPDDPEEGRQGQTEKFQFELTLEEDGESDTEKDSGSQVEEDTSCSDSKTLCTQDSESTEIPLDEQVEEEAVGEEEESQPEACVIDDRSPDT

[17] = target: Ephrin type-A receptor 7 (Homo sapiens) (UniProt Q15375); assay: EPH receptor A7 Millipore kinase panel; conditions: Compound concentration 10.0 uM
[18] = target: Insulin receptor-related protein (Homo sapiens) (UniProt P14616); assay: insulin receptor-related receptor Millipore kinase panel; conditions: Compound concentration 10.0 uM
[19] = target: T2, Alpha-2B adrenergic receptor (Homo sapiens) (UniProt P18089); assay: hAb2 Cerep panel; conditions: Compound concentration 10.0 uM
T2 sequence (whole entry): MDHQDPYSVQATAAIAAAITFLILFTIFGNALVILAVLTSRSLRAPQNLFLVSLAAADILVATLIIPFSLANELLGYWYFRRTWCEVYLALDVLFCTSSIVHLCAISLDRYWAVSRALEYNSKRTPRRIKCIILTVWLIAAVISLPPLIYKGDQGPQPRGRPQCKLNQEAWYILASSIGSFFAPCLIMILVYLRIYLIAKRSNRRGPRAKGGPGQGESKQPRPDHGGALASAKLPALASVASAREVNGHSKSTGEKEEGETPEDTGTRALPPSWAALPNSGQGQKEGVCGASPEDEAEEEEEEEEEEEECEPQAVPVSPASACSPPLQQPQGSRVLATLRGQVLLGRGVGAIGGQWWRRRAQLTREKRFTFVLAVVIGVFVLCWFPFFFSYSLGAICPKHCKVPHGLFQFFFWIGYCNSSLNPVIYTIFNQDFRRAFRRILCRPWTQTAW

[20] = target: Histamine H4 receptor (Homo sapiens) (UniProt Q9H3N8); conditions: Compound concentration 10.0 uM
[21] = target: Ribosomal protein S6 kinase alpha-6 (Homo sapiens) (UniProt Q9UK32); assay: ribosomal protein S6 kinase, 90kDa, polypeptide 6 Millipore kinase panel; conditions: Compound concentration 10.0 uM
[22] = target: Serine/threonine-protein kinase 3 (Homo sapiens) (UniProt Q13188); assay: serine/threonine kinase 3 Millipore kinase panel; conditions: Compound concentration 10.0 uM
Sequence of Serine/threonine-protein kinase 3 (Homo sapiens) (Q13188 whole entry): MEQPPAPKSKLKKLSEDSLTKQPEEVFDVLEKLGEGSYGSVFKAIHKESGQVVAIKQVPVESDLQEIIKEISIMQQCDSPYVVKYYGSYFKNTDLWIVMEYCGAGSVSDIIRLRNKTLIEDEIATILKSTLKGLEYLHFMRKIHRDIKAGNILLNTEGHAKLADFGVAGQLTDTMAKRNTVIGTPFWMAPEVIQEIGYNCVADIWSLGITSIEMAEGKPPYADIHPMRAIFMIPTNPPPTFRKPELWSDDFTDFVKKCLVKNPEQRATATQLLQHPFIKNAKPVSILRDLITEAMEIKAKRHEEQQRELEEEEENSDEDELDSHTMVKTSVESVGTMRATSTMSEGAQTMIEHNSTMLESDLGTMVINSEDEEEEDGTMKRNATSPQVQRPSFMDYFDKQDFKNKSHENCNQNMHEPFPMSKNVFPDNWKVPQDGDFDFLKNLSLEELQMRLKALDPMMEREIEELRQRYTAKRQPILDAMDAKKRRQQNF

[23] = target: Tyrosine-protein kinase Fgr (Homo sapiens) (UniProt P09769); assay: Gardner-Rasheed feline sarcoma viral (v-fgr) oncogene homolog Millipore kinase panel; conditions: Compound concentration 10.0 uM
[24] = target: Prostaglandin E2 receptor EP2 subtype (Homo sapiens) (UniProt P43116); assay: hEP2 Cerep panel; conditions: Compound concentration 10.0 uM
[25] = target: Rho-associated protein kinase 1 (Homo sapiens) (UniProt Q13464); assay: Rho-associated, coiled-coil containing protein kinase 1 Millipore kinase panel; conditions: Compound concentration 10.0 uM
[26] = target: Vascular endothelial growth factor receptor 1 (Homo sapiens) (UniProt P17948); assay: fms-related tyrosine kinase 1 Millipore kinase panel; conditions: Compound concentration 10.0 uM
[27] = target: Ephrin type-A receptor 1 (Homo sapiens) (UniProt P21709); assay: EPH receptor A1 Millipore kinase panel; conditions: Compound concentration 10.0 uM
[28] = target: C-C chemokine receptor type 1 (Homo sapiens) (UniProt P32246); assay: hCCR1 Cerep panel; conditions: Compound concentration 10.0 uM
[29] = target: Mitogen-activated protein kinase 12 (Homo sapiens) (UniProt P53778); assay: mitogen-activated protein kinase 12 Millipore kinase panel; conditions: Compound concentration 10.0 uM
Sequence of Mitogen-activated protein kinase 12 (Homo sapiens) (P53778 whole entry): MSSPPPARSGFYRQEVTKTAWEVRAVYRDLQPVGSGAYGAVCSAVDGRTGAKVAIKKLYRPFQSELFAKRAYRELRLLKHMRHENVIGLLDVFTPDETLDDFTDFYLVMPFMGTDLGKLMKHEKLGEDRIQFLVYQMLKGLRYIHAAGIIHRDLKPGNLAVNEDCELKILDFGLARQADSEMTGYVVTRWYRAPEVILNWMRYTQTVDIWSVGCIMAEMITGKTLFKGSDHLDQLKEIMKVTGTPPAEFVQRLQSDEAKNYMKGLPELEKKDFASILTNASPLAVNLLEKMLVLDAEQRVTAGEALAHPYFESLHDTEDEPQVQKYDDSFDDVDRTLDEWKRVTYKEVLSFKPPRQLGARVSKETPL

[30] = target: Glutamate receptor ionotropic, AMPA (Rattus norvegicus) (UniProt P19491+P19492+P19493+P19490); assay: rGlutamate (ionotropic) AMPA Cerep panel; assay type: protein-complex assay; conditions: Compound concentration 10.0 uM
[31] = target: CDK3/cyclin E (Homo sapiens) (UniProt P24864+O96020+Q00526); assay: cyclin-dependent kinase 3 / cyclinE Millipore kinase panel; assay type: protein-complex assay; conditions: Compound concentration 10.0 uM
[32] = target: cAMP-dependent protein kinase catalytic subunit PRKX (Homo sapiens) (UniProt P51817); assay: protein kinase, X-linked Millipore kinase panel; conditions: Compound concentration 10.0 uM
[33] = target: Glucocorticoid receptor (Homo sapiens) (UniProt P04150); assay: hGR Cerep panel; conditions: Compound concentration 10.0 uM
[34] = target: Cannabinoid receptor 1 (Homo sapiens) (UniProt P21554); assay: hCB1 Cerep panel; conditions: Compound concentration 10.0 uM
[35] = target: Serine/threonine-protein kinase DCLK2 (Homo sapiens) (UniProt Q8N568); assay: doublecortin-like kinase 2 Millipore kinase panel; conditions: Compound concentration 10.0 uM
[36] = target: Prostaglandin E2 receptor EP4 subtype (Homo sapiens) (UniProt P35408); assay: hEP4 Cerep panel; conditions: Compound concentration 10.0 uM

`COCCc1ccc(-c2c(C)nc3c(N4CCOCC4)ccnn23)cn1` [JNJ-42396302] gave an effect [1] of -3.05%, an inhibition [2] of 2% and an inhibition [3] of -2%. It also gave an effect [4] of 4.45%, an inhibition [5] of 0% and an inhibition [6] of -6%. It also gave an effect [7] of 5.7%, an effect [8] of 14.4% and an inhibition [9] of 1%. It also gave an effect [10] of 2.05%, an inhibition [11] of 2% and an inhibition [12] of 4%. The inhibition [13] was 4%, the inhibition [14] was 7% and the effect [15] was -19.6%. The Ki [16] was 15 µM, the inhibition [17] was 0% and the inhibition [18] was 10%. For the same compound, the effect [19] was -4.45%, the inhibition [20] was -1.08% and the inhibition [21] was -10%. For the same compound, the inhibition [22] was -8%, the inhibition [23] was 7% and the effect [24] was 3.95%. The inhibition [25] was -6%, the inhibition [26] was -5% and the inhibition [27] was 7%. The effect [28] was -7.45%, the inhibition [29] was 2% and the effect [30] was 7.7%. It also gave an inhibition [31] of 7%, an inhibition [32] of 4% and an effect [33] of 1.9%. The effect [34] was 4.05%, the inhibition [35] was -6% and the effect [36] was 13.6%.
